Our source for the IC50 and EC50 values is patent publication US11440907B1 (Merck Patent GmbH, priority 2018, dated 2022).

Structures are written as SMILES.

Assay [1] has as its system β-catenin-TCF-mediated reporter transcription activity in Colo 205 cells. The assay can be described thus: Colo 205 reporter assay (TCF/LEF promoter-driven firefly luciferase). The settings on record: Homo sapiens; Colo 205 TCF/LEF luciferase reporter, 5 hours after compound addition, 384 well; read-out: Colo205 IC50. The assay is classed as cell-based. (In general: Reporter assays use an easily measured gene product as a stand-in for the process of interest.)

The subject of assay [2] is XBP1(u)-luciferase splicing reporter in HepG2 hepatoma cells. The assay is described as follows: HepG2 XBP1 reporter assay (XBP1(u)-Luc). It is filed as cell-based. The settings on record: Homo sapiens, 6 hours after compound addition, Table 3, read-out: XBP1-luc HepG2 1 EC50.

Usually IC50 stands for the concentration that inhibits the measured activity by half. The term EC50 denotes the concentration at which the effect is half-maximal. Regarding `Cc1cc(N2CCCOCC2c2cc3c(cc2Cl)SCCN3)nc(N)n1` (racemic) [I-274, 4-[3-(7-chloro-3,4-dihydro-2H-1,4-benzothiazin-6-yl)-1,4-oxazepan-4-yl]-6-methyl-pyrimidin-2-amine], the concentration for half-maximal inhibition (IC50) in assay [1] was in the range of 300 to 1000 nM. In addition, in assay [2], the concentration giving a half-maximal response (EC50) is not below 5000 nM.

On to `Cc1cc(N2CCCOC[C@H]2c2ccc(NC(=O)C(C)(C)O)cc2Cl)nc(N)n1` (racemic) [I-277, (+/−)-N-(4-(4-(2-amino-6-methylpyrimidin-4-yl)-1,4-oxazepan-3-yl)-3-chlorophenyl)-2-hydroxy-2-methylpropanamide], for which the IC50 in assay [1] is less than 300 nM. Also, the 50% effective concentration (EC50) in assay [2] is less than 600 nM.

As to `Cc1cc(N2CCCOCC2c2ccc(NC(=O)C3(F)CCOC3)cc2Cl)nc(N)n1` (racemic) [I-279, (+/−)-N-(4-(4-(2-amino-6-methylpyrimidin-4-yl)-1,4-oxazepan-3-yl)-3-chlorophenyl)-3-fluorotetrahydrofuran-3-carboxamide], the IC50 in assay [1] was less than 300 nM. The EC50 in assay [2] was less than 600 nM.

On to `Cc1cc(N2CCCOCC2c2ccc(NC(=O)[C@@H]3CCOC3)cc2Cl)nc(N)n1` (mixture of isomers) [I-280, (3R)—N-(4-(4-(2-amino-6-methylpyrimidin-4-yl)-1,4-oxazepan-yl)-3-chlorophenyl)-tetrahydrofuran-3-carboxamide], for which the concentration for half-maximal inhibition (IC50) in assay [1] was 300 to 1000 nM. The EC50 in assay [2] is less than 600 nM.

On to `Cc1cc(N2CCCOCC2c2ccc(NC(=O)[C@H]3CCOC3)cc2Cl)nc(N)n1` (mixture of isomers) [I-281, (3S)—N-(4-(4-(2-amino-6-methylpyrimidin-4-yl)-1,4-oxazepan-3-yl)-3-chlorophenyl)-tetrahydrofuran-3-carboxamide], for which the 50% inhibitory concentration (IC50) in assay [1] was 300 to 1000 nM. In addition, the concentration giving a half-maximal response (EC50) in assay [2] was in the range of 600 to 2000 nM.

Regarding `Cc1cc(N2CCCOCC2c2ccc(NC(=O)C3(C)COC3)cc2Cl)nc(N)n1` (racemic) [I-282, (+/−)-N-(4-(4-(2-amino-6-methylpyrimidin-4-yl)-1,4-oxazepan-3-yl)-3-chlorophenyl)-3-methyloxetane-3-carboxamide], the half-inhibitory concentration (IC50) in assay [1] lay within 300 to 1000 nM. Moreover, the EC50 in assay [2] was 600 to 2000 nM.

Take `Cc1cc(N2CCCCC[C@H]2c2ccccc2Br)nc(N)n1` (single isomer, unassigned) [I-3]: the IC50 in assay [1] was less than 300 nM. The concentration for a half-maximal effect (EC50) in assay [2] was less than 600 nM.

`COc1ccccc1[C@H]1CCCCCN1c1cc(C)nc(N)n1` (single isomer, unassigned) [I-11]: the half-maximal inhibitory concentration (IC50) in assay [1] was less than 300 nM. Moreover, the EC50 in assay [2] lay within 2000 to 5000 nM.

Consider `Cc1cc(N2CCCCC[C@H]2c2ccccc2Cl)nc(N)n1` (single isomer, unassigned) [I-14], for which the IC50 in assay [1] was less than 300 nM. For the same compound, the concentration giving a half-maximal response (EC50) in assay [2] is less than 600 nM.

Take `COc1cc(S(C)(=O)=O)ccc1[C@@H]1CCCCCN1c1cc(C)nc(N)n1` (single isomer, unassigned) [I-98, 4-[2-(2-methoxy-4-methylsulfonyl-phenyl)azepan-1-yl]-6-methyl-pyrimidin-2-amine]: the IC50 in assay [1] lay within 300 to 1000 nM. Moreover, in assay [2], the 50% effective concentration (EC50) is less than 600 nM.

`Cc1cc(N2CCCOCC2c2cc(NCCO)ccc2Cl)nc(N)n1` (single isomer, unassigned) [I-237]: in assay [1], the concentration for half-maximal inhibition (IC50) is less than 300 nM. For the same compound, the concentration for a half-maximal effect (EC50) in assay [2] was less than 600 nM.

On to `Cc1cc(N2CCCOC[C@@H]2c2cc(NCCO)ccc2Cl)nc(N)n1` (single isomer, unassigned) [I-253], for which, in assay [1], the IC50 is less than 300 nM. The EC50 in assay [2] was less than 600 nM.

As to `Cc1cc(N2CCCOC[C@@H]2c2ccc(OC[C@@H](C)O)cc2Cl)nc(N)n1` (single isomer, unassigned) [I-265], the IC50 in assay [1] is less than 300 nM. For the same compound, the concentration giving a half-maximal response (EC50) in assay [2] was less than 600 nM.

Take `CC(=O)Nc1cc([C@H]2COCCCN2c2cc(C)nc(N)n2)c(Cl)cc1F` (single isomer, unassigned) [I-271]: in assay [1], the IC50 lay within 300 to 1000 nM. Moreover, the half-maximal effective concentration (EC50) in assay [2] is less than 600 nM.

Turning to `Cc1cc(N2CCCCCC2c2ccccc2Br)nc(N)n1` (stereo not drawn) [I-69], in assay [1], the 50% inhibitory concentration (IC50) is 300 to 1000 nM. Also, the concentration for a half-maximal effect (EC50) in assay [2] was less than 600 nM.

Regarding `COc1ccccc1C1CCCCCN1c1cc(C)nc(N)n1` (stereo not drawn) [I-124], in assay [1], the IC50 was less than 300 nM. Further, the concentration for a half-maximal effect (EC50) in assay [2] was in the range of 600 to 2000 nM.

In the case of `Cc1cc(N2CCCOCC2c2cc(N3CC[C@H](O)C3)ccc2Cl)nc(N)n1` (stereo partly drawn) [I-234, (3S)-1-[3-[4-(2-amino-6-methyl-pyrimidin-4-yl)-1,4-oxazepan-3-yl]-4-chloro-phenyl]pyrrolidin-3-ol], the IC50 in assay [1] is 300 to 1000 nM. For the same compound, in assay [2], the EC50 is less than 600 nM.

For `Cc1cc(N2CCCOC[C@@H]2c2ccc(NCC3(C)COC3)cc2Cl)nc(N)n1` [I-240, 4-[(3S)-3-[2-chloro-4-[(3-methyloxetan-3-yl)methylamino]phenyl]-1,4-oxazepan-4-yl]-6-methyl-pyrimidin-2-amine], the concentration for half-maximal inhibition (IC50) in assay [1] was less than 300 nM. The EC50 in assay [2] was less than 600 nM.

For `Cc1cc(N2CCCOC[C@@H]2c2ccc(N3CCC(C)(O)CC3)cc2Cl)nc(N)n1` [I-242, (5)-1-(4-(4-(2-amino-6-methylpyrimidin-4-yl)-1,4-oxazepan-3-yl)-3-chlorophenyl)-4-methylpiperidin-4-ol], the IC50 in assay [1] is less than 300 nM. Besides, the EC50 in assay [2] was less than 600 nM.

Consider `Cc1cc(N2CCCCCC2c2ccccc2Cl)nc(N)n1` (stereo not drawn) [I-243], for which the IC50 in assay [1] was less than 300 nM. For the same compound, in assay [2], the EC50 was less than 600 nM.

Take `Cc1cc(N2CCCOC[C@@H]2c2cc(Br)ccc2Cl)nc(N)n1` [I-245, 4-[(3S)-3-(5-bromo-2-chloro-phenyl)-1,4-oxazepan-4-yl]-6-methyl-pyrimidin-2-amine]: in assay [1], the IC50 lay within 300 to 1000 nM. Further, the EC50 in assay [2] was less than 600 nM.

As for `Cc1cc(N2CCCOC[C@@H]2c2ccc(NC3CN(C)C3)cc2Cl)nc(N)n1` [I-246, 4-[(3S)-3-[2-chloro-4-[(1-methylazetidin-3-yl)amino]phenyl]-1,4-oxazepan-4-yl]-6-methyl-pyrimidin-2-amine], in assay [1], the half-maximal inhibitory concentration (IC50) was less than 300 nM. Also, the concentration for a half-maximal effect (EC50) in assay [2] was less than 600 nM.

`Cc1cc(N2CCCOC[C@@H]2c2ccc(NCC(C)(C)O)cc2Cl)nc(N)n1` [I-247, 1-[4-[(3S)-4-(2-amino-6-methyl-pyrimidin-4-yl)-1,4-oxazepan-3-yl]-3-chloro-anilino]-2-methyl-propan-2-ol]: the IC50 in assay [1] is less than 300 nM. Moreover, in assay [2], the half-maximal effective concentration (EC50) was less than 600 nM.

On to `Cc1cc(N2CCCOC[C@@H]2c2ccc(NC3CC3)cc2Cl)nc(N)n1` [I-248, 4-[(3S)-3-[2-chloro-4-(cyclopropylamino)phenyl]-1,4-oxazepan-4-yl]-6-methyl-pyrimidin-2-amine], for which the 50% inhibitory concentration (IC50) in assay [1] was less than 300 nM. Also, the EC50 in assay [2] was less than 600 nM.

Turning to `Cc1cc(N2CCCOC[C@@H]2c2ccc(NC3CN(C(=O)OC(C)(C)C)C3)cc2Cl)nc(N)n1` [I-256, Tert-butyl 3-[4-[(3S)-4-(2-amino-6-methyl-pyrimidin-4-yl)-1,4-oxazepan-3-yl]-3-chloro-anilino]azetidine-1-carboxylate], the IC50 in assay [1] is less than 300 nM. Further, the half-maximal effective concentration (EC50) in assay [2] is less than 600 nM.

Consider `Cc1cc(N2CCCOC[C@@H]2c2ccc(NC3CNC3)cc2Cl)nc(N)n1` [I-257, 4-[(3S)-3-[4-(azetidin-3-ylamino)-2-chloro-phenyl]-1,4-oxazepan-4-yl]-6-methyl-pyrimidin-2-amine], for which the IC50 in assay [1] lay within 300 to 1000 nM. For the same compound, in assay [2], the EC50 was less than 600 nM.

As to `Cc1cc(N2CCCOC[C@@H]2c2cc(NC3COC3)ccc2Cl)nc(N)n1` [I-258, 4-[(3S)-3-[2-chloro-5-(oxetan-3-ylamino)phenyl]-1,4-oxazepan-4-yl]-6-methyl-pyrimidin-2-amine], the IC50 in assay [1] is less than 300 nM. Besides, the EC50 in assay [2] is less than 600 nM.

Regarding `Cc1cc(N2CCCOC[C@@H]2c2ccc(N3CC4(COC4)C3)cc2Cl)nc(N)n1` [I-259, 4-[(3S)-3-[2-chloro-4-(2-oxa-6-azaspiro[3.3]heptan-6-yl)phenyl]-1,4-oxazepan-4-yl]-6-methyl-pyrimidin-2-amine], the IC50 in assay [1] was less than 300 nM. The 50% effective concentration (EC50) in assay [2] was less than 600 nM.

Regarding `Cc1cc(N2CCCOC[C@@H]2c2ccc(N3CC4(CCO4)C3)cc2Cl)nc(N)n1` [I-260, 4-[(3S)-3-[2-chloro-4-(1-oxa-6-azaspiro[3.3]heptan-6-yl)phenyl]-1,4-oxazepan-4-yl]-6-methyl-pyrimidin-2-amine], in assay [1], the IC50 was less than 300 nM. In addition, in assay [2], the EC50 was less than 600 nM.

`Cc1cc(N2CCCOC[C@@H]2c2ccc(N3CC(C)(O)C3)cc2Cl)nc(N)n1` [I-261, (S)-1-(4-(4-(2-amino-6-methylpyrimidin-4-yl)-1,4-oxazepan-3-yl)-3-chlorophenyl)-3-methylazetidin-3-ol]: the IC50 in assay [1] was less than 300 nM. Also, the EC50 in assay [2] is less than 600 nM.

Take `CC(=O)N1CC(Nc2ccc([C@H]3COCCCN3c3cc(C)nc(N)n3)c(Cl)c2)C1` [I-262, (S)-1-(3-((4-(4-(2-amino-6-methylpyrimidin-4-yl)-1,4-oxazepan-3-yl)-3-chlorophenyl)amino)azetidin-1-yl)ethan-1-one]: the IC50 in assay [1] is less than 300 nM. For the same compound, in assay [2], the 50% effective concentration (EC50) was less than 600 nM.

For the compound `Cc1cc(N2CCCOC[C@@H]2c2ccc(NCC3(O)CCC3)cc2Cl)nc(N)n1` [I-263, 1-[[4-[(3S)-4-(2-amino-6-methyl-pyrimidin-4-yl)-1,4-oxazepan-3-yl]-3-chloro-anilino]methyl]-cyclobutanol], the half-inhibitory concentration (IC50) in assay [1] was less than 300 nM. The EC50 in assay [2] is less than 600 nM.

In the case of `Cc1cc(N2CCCOC[C@@H]2c2ccc(NC3(C)COC3)cc2Cl)nc(N)n1` [I-266, 4-[(3S)-3-[2-chloro-4-[(3-methyloxetan-3-yl)amino]phenyl]-1,4-oxazepan-4-yl]-6-methyl-pyrimidin-2-amine], the concentration for half-maximal inhibition (IC50) in assay [1] is less than 300 nM. In assay [2], the EC50 was less than 600 nM.

For `Cc1cc(N2CCCOC[C@@H]2c2ccc(N3CCN(C)CC3)cc2Cl)nc(N)n1` [I-275, (S)-4-[3-[2-chloro-4-(4-methylpiperazin-1-yl)phenyl]-1,4-oxazepan-4-yl]-6-methyl-pyrimidin-2-amine], in assay [1], the 50% inhibitory concentration (IC50) is 300 to 1000 nM. For the same compound, the concentration giving a half-maximal response (EC50) in assay [2] is less than 600 nM.

Take `COc1ccc(F)cc1[C@@H]1CCCCCN1c1cc(C)nc(N)n1` [I-285]: the IC50 in assay [1] lay in the range of 300 to 1000 nM. The EC50 in assay [2] was 2000 to 5000 nM.

`COc1c(F)cccc1C1CCCCCN1c1cc(C)nc(N)n1` (stereo not drawn) [I-287]: the half-maximal inhibitory concentration (IC50) in assay [1] was in the range of 300 to 1000 nM. For the same compound, the EC50 in assay [2] is not below 5000 nM.
